Measured values: PubChem BioAssay (NCI)
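Briefly, cells in 96-well plates were exposed to five compound concentrations for 48 h, and endpoints were estimated by linear interpolation. TGI: total growth inhibition.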

Tests used:
Assay in all cases: growth of human tumour cells (NCI), 48 h
SF-295 CNS = test system: SF-295 CNS
SN12C renal = test system: SN12C renal
MCF7 breast = test system: MCF7 breast
KM12 colon = test system: KM12 colon
HOP-92 NSCLC = test system: HOP-92 NSCLC
NCI/ADR-RES ovarian = test system: NCI/ADR-RES ovarian
CCRF-CEM leukemia = test system: CCRF-CEM leukemia
OVCAR-3 ovarian = test system: OVCAR-3 ovarian
M14 melanoma = test system: M14 melanoma
SK-MEL-28 melanoma = test system: SK-MEL-28 melanoma
HCT-15 colon = test system: HCT-15 colon
K-562 leukemia = test system: K-562 leukemia
EKVX NSCLC = test system: EKVX NSCLC
PC-3 prostate = test system: PC-3 prostate
LOX IMVI melanoma = test system: LOX IMVI melanoma
T-47D breast = test system: T-47D breast
UO-31 renal = test system: UO-31 renal
BT-549 breast = test system: BT-549 breast
SK-MEL-2 melanoma = test system: SK-MEL-2 melanoma
A549 NSCLC = test system: A549 NSCLC
MDA-MB-231 breast = test system: MDA-MB-231 breast
SF-539 CNS = test system: SF-539 CNS
MOLT-4 leukemia = test system: MOLT-4 leukemia
SW-620 colon = test system: SW-620 colon
MALME-3M melanoma = test system: MALME-3M melanoma
SNB-19 CNS = test system: SNB-19 CNS
HCT-116 colon = test system: HCT-116 colon
A498 renal = test system: A498 renal
UACC-62 melanoma = test system: UACC-62 melanoma
TK-10 renal = test system: TK-10 renal
ACHN renal = test system: ACHN renal
NCI-H226 lung = test system: NCI-H226 lung
RPMI-8226 leukemia = test system: RPMI-8226 leukemia
NCI-H460 lung = test system: NCI-H460 lung
OVCAR-5 ovarian = test system: OVCAR-5 ovarian
MDA-N = test system: MDA-N
786-0 renal = test system: 786-0 renal
SK-MEL-5 melanoma = test system: SK-MEL-5 melanoma
CAKI-1 renal = test system: CAKI-1 renal
HT29 colon = test system: HT29 colon
HS 578T breast = test system: HS 578T breast
NCI-H23 lung = test system: NCI-H23 lung
SR leukemia = test system: SR leukemia
IGROV1 ovarian = test system: IGROV1 ovarian
HCC-2998 colon = test system: HCC-2998 colon
U251 CNS = test system: U251 CNS
COLO 205 colon = test system: COLO 205 colon
NCI-H522 lung = test system: NCI-H522 lung
DU-145 prostate = test system: DU-145 prostate
HOP-62 NSCLC = test system: HOP-62 NSCLC
OVCAR-8 ovarian = test system: OVCAR-8 ovarian
HL-60(TB) leukemia = test system: HL-60(TB) leukemia
OVCAR-4 ovarian = test system: OVCAR-4 ovarian
SNB-75 CNS = test system: SNB-75 CNS
SF-268 CNS = test system: SF-268 CNS
MDA-MB-435 = test system: MDA-MB-435
UACC-257 melanoma = test system: UACC-257 melanoma
RXF 393 renal = test system: RXF 393 renal
SK-OV-3 ovarian = test system: SK-OV-3 ovarian

## COC(=O)c1cc2c3c(c1)Oc1cc(C(=O)OC)cc4c1C3c1c(cc(C(=O)OC)cc1O4)O2
SF-295 CNS
  TGI: 26.4 µM
SN12C renal
  TGI: > 100 µM
MCF7 breast
  TGI: > 56.3 µM
KM12 colon
  TGI: > 49.7 µM
HOP-92 NSCLC
  TGI: > 31.6 µM
NCI/ADR-RES ovarian
  TGI: 13 µM
CCRF-CEM leukemia
  TGI: 96.9 µM
OVCAR-3 ovarian
  TGI: 33 µM
M14 melanoma
  TGI: > 95.7 µM
SK-MEL-28 melanoma
  TGI: > 100 µM
HCT-15 colon
  TGI: > 100 µM
K-562 leukemia
  TGI: > 100 µM
EKVX NSCLC
  TGI: 46.4 µM
PC-3 prostate
  TGI: > 53.6 µM
LOX IMVI melanoma
  TGI: > 46.1 µM
T-47D breast
  TGI: > 100 µM
UO-31 renal
  TGI: > 100 µM
BT-549 breast
  TGI: > 100 µM
SK-MEL-2 melanoma
  TGI: > 100 µM
A549 NSCLC
  TGI: > 48.3 µM
MDA-MB-231 breast
  TGI: > 100 µM
SF-539 CNS
  TGI: 33 µM
MOLT-4 leukemia
  TGI: > 100 µM
SW-620 colon
  TGI: > 100 µM
MALME-3M melanoma
  TGI: 37.2 µM
SNB-19 CNS
  TGI: > 62.9 µM
HCT-116 colon
  TGI: > 100 µM
A498 renal
  TGI: > 94.6 µM
UACC-62 melanoma
  TGI: > 75.5 µM
TK-10 renal
  TGI: > 56.9 µM
ACHN renal
  TGI: 26.2 µM
NCI-H226 lung
  TGI: 13.6 µM
RPMI-8226 leukemia
  TGI: > 100 µM
NCI-H460 lung
  TGI: > 100 µM
OVCAR-5 ovarian
  TGI: > 66.1 µM
MDA-N
  TGI: > 100 µM
786-0 renal
  TGI: 23 µM
SK-MEL-5 melanoma
  TGI: 14.3 µM
CAKI-1 renal
  TGI: 27.8 µM
HT29 colon
  TGI: 38.3 µM
HS 578T breast
  TGI: 41.1 µM
NCI-H23 lung
  TGI: > 72 µM
SR leukemia
  TGI: > 100 µM
IGROV1 ovarian
  TGI: 26.5 µM
HCC-2998 colon
  TGI: > 100 µM
U251 CNS
  TGI: 41.8 µM
COLO 205 colon
  TGI: > 91.5 µM
NCI-H522 lung
  TGI: 15.5 µM
DU-145 prostate
  TGI: > 41.3 µM
HOP-62 NSCLC
  TGI: 23.5 µM
OVCAR-8 ovarian
  TGI: 17.1 µM
HL-60(TB) leukemia
  TGI: > 29.3 µM
OVCAR-4 ovarian
  TGI: > 100 µM
SNB-75 CNS
  TGI: 20 µM
SF-268 CNS
  TGI: 30 µM
MDA-MB-435
  TGI: > 100 µM
UACC-257 melanoma
  TGI: > 100 µM
RXF 393 renal
  TGI: 16.5 µM
SK-OV-3 ovarian
  TGI: 42.4 µM
